Results as given in patent US9701707B2, “Methods of synthesizing substituted purine compounds” (Epizyme, Inc., priority 2013, dated 2017).

Key:
[1] = Solid-state photostability; type: physicochemical
Description: The solid-state photostability of EP-1 trihydrate (x is 3) was assessed upon exposure to UV/Vis light according to ICH guidelines. Loss of claim %, loss of area %, and degradates were evaluated versus dark control samples.
Solid-State Photostability: Weighed ˜5 mg Form B into glass vials with 2 vials covered with foil as the controls. Put these 2 samples with their controls into chamber and expose them to Vis (10 Kilo lux) for 120 hrs followed by UV (10 W/m^2) for 20 hrs (per ICH guidelines). At the end of Vis, take 1 sample and 1 control out for analysis and the others were taken out after both Vis and UV exposure.

[2] = Solution stability in pH buffers; type: physicochemical
Description: 0.1 mg/ml solutions of Form B were prepared in five buffers, including 0.01N HCl (pH 2), 50 mM sodium citrate (pH 4), 50 mM sodium citrate (pH 6), 50 mM sodium phosphate (pH 8), and 50 mM sodium carbonate (pH 10). Methanol was added as a co-solvent to dissolve Form B in buffers (i.e., 10% (v/v) in pH 2, 4, and 6 buffers, 20% (v/v) in pH 8 buffer, and 30% (v/v) in pH 10 buffer). Each buffer solution containing Form B was stored at 3 different temperatures: 25° C., 37° C., and 50° C. Aliquots were taken for HPLC analysis after 1 day and 7 days. pH values were also measured before and after the stability experiments.
Preparation of pH Buffers • pH 2: 0.01N HCl solution. Dilute 1 ml of 1 N HCl with H2O up to a total volume of 100 ml. Measure the pH and precisely adjust to pH=2.00 using a few microliters of 1N HCl or 1N NaOH. • pH 4: 50 mM Na citrate buffer. Prepare a 50 mM citric acid solution by diluting 10 ml of 1N citric acid with H2O up to a total volume of 200 ml. Slowly add solid NaOH under stirring to increase the pH to 3.8-4.0 and use a few microliters of 1N NaOH for final adjustment to pH 4.00. • pH 6: 50 mM Na citrate buffer. Use the same procedure as the pH 4 buffer and adjust to pH=6.00 • pH 8: 50 mM Na phosphate buffer. Prepare a 50 mM NaH2PO4 solution by dissolving 6.00 g NaH2PO4 in 1 L of H2O and a 50 mM Na2HPO4 solution by dissolving 7.10 g in 1 L of H2O. Mix 10 ml of the NaH2PO4 solution with 140 ml of the Na2HPO4 solution in a beaker. Adjust to pH 8.00 by addition of small amounts of 50 mM NaH2PO4 or Na2HPO4 solution. • pH 10: 50 mM Na carbonate buffer. Prepare a 50 mM carbonate solution by dissolving 840 mg of sodium bicarbonate (NaHCO3) in about 180 ml of H2O. Slowly adjust the pH to 10.0±0.1 by addition of 1N NaOH. Add water to reach the total volume of 200 ml and adjust to pH 10.00 with 1N NaOH.

[3] = Bulk control (covered with foil), Vis Stability (1.2 Mil lux-hours)
[4] = Bulk control (covered with foil), Vis-UV stability (1.2 Mil lux-hours + 200 Watt-hours/m^2)
[5] = Bulk, Vis Stability (1.2 Mil lux-hours)
[6] = Bulk, Vis-UV stability (1.2 Mil lux-hours + 200 Watt-hours/m^2)
[7] = pH 2, 25° C., 24 h, measured pH 2.1
[8] = pH 2, 25° C., 7 days, measured pH 2.1
[9] = pH 2, 37° C., 24 h, measured pH 2.1
[10] = pH 2, 37° C., 7 days, measured pH 2.1
[11] = pH 2, 50° C., 24 h, measured pH 2.1
[12] = pH 2, 50° C., 7 days, measured pH 2.1
[13] = pH 4, 25° C., 24 h, measured pH 4.2
[14] = pH 4, 25° C., 7 days, measured pH 4.2
[15] = pH 4, 37° C., 24 h, measured pH 4.1
[16] = pH 4, 37° C., 7 days, measured pH 4.1
[17] = pH 4, 50° C., 24 h, measured pH 4.1
[18] = pH 4, 50° C., 7 days, measured pH 4.2
[19] = pH 6, 25° C., 24 h, measured pH 6.2
[20] = pH 6, 25° C., 7 days, measured pH 6.2
[21] = pH 6, 37° C., 24 h, measured pH 6.2
[22] = pH 6, 37° C., 7 days, measured pH 6.3
[23] = pH 6, 50° C., 24 h, measured pH 6.2
[24] = pH 6, 50° C., 7 days, measured pH 6.2
[25] = pH 8, 25° C., 24 h, measured pH 8.2
[26] = pH 8, 25° C., 7 days, measured pH 8.2
[27] = pH 8, 37° C., 24 h, measured pH 8.2
[28] = pH 8, 37° C., 7 days, measured pH 8.3
[29] = pH 8, 50° C., 24 h, measured pH 8.3
[30] = pH 8, 50° C., 7 days, measured pH 8.3
[31] = pH 10, 25° C., 24 h, measured pH 10.9
[32] = pH 10, 25° C., 7 days, measured pH 10.9
[33] = pH 10, 37° C., 24 h, measured pH 10.9
[34] = pH 10, 37° C., 7 days, measured pH 10.9
[35] = pH 10, 50° C., 24 h, measured pH 11.0
[36] = pH 10, 50° C., 7 days, measured pH 10.9

## CC(C)N(C[C@H]1O[C@@H](n2cnc3c(N)ncnc32)[C@H](O)[C@@H]1O)[C@H]1C[C@@H](CCc2nc3cc(C(C)(C)C)ccc3[nH]2)C1 [Form B, (2R,3R,4S,5R)-2-(6-amino-9H-purin-9-yl)-5-((((1r,3S)-3-(2-(5-(tert-butyl)-1H-benzo[d]imidazol-2-yl)ethyl)cyclobutyl)(isopropyl)amino)methyl)tetrahydrofuran-3,4-diol trihydrate]
[1]; [3]
  % area (100% − TRS%): 99.7%
  % claim (Cs/Ci × 100%): 100.0%
[1]; [4]
  % area (100% − TRS%): 99.8%
  % claim (Cs/Ci × 100%): 100.0%
[1]; [5]
  % area (100% − TRS%): 99.8%
  % claim (Cs/Ci × 100%): 101.1%
[1]; [6]
  % area (100% − TRS%): 99.8%
  % claim (Cs/Ci × 100%): 99.6%
[1]; exposure to full ICH photostability requirement, versus dark control
  solid-state photostability: stable
[2]; [7]
  % area (100% − TRS%): 98.7%
  % claim (Cs/Ci × 100%): 97.1%
[2]; [8]
  % area (100% − TRS%): 98.5%
  % claim (Cs/Ci × 100%): 99.1%
[2]; [9]
  % area (100% − TRS%): 98.7%
  % claim (Cs/Ci × 100%): 96.8%
[2]; [10]
  % area (100% − TRS%): 98.4%
  % claim (Cs/Ci × 100%): 97.5%
[2]; [11]
  % area (100% − TRS%): 98.3%
  % claim (Cs/Ci × 100%): 97.0%
[2]; [12]
  % area (100% − TRS%): 98.4%
  % claim (Cs/Ci × 100%): 97.0%
[2]; pH 2 to 10 buffers, 25° C., 37° C., 50° C., up to 7 days
  degradation in solution: less than 5%
[2]; [13]
  % area (100% − TRS%): 99.4%
  % claim (Cs/Ci × 100%): 97.4%
[2]; [14]
  % area (100% − TRS%): 99.6%
  % claim (Cs/Ci × 100%): 100.2%
[2]; [15]
  % area (100% − TRS%): 99.4%
  % claim (Cs/Ci × 100%): 97.6%
[2]; [16]
  % area (100% − TRS%): 99.5%
  % claim (Cs/Ci × 100%): 99.0%
[2]; [17]
  % area (100% − TRS%): 99.4%
  % claim (Cs/Ci × 100%): 97.6%
[2]; [18]
  % area (100% − TRS%): 99.5%
  % claim (Cs/Ci × 100%): 98.7%
[2]; [19]
  % area (100% − TRS%): 99.2%
  % claim (Cs/Ci × 100%): 98.0%
[2]; [20]
  % area (100% − TRS%): 99.5%
  % claim (Cs/Ci × 100%): 100.0%
[2]; [21]
  % area (100% − TRS%): 99.3%
  % claim (Cs/Ci × 100%): 97.9%
[2]; [22]
  % area (100% − TRS%): 99.4%
  % claim (Cs/Ci × 100%): 99.0%
[2]; [23]
  % area (100% − TRS%): 99.3%
  % claim (Cs/Ci × 100%): 98.1%
[2]; [24]
  % area (100% − TRS%): 99.5%
  % claim (Cs/Ci × 100%): 98.9%
[2]; [25]
  % area (100% − TRS%): 99.2%
  % claim (Cs/Ci × 100%): 98.0%
[2]; [26]
  % area (100% − TRS%): 99.5%
  % claim (Cs/Ci × 100%): 99.8%
[2]; [27]
  % area (100% − TRS%): 99.5%
  % claim (Cs/Ci × 100%): 98.4%
[2]; [28]
  % area (100% − TRS%): 99.5%
  % claim (Cs/Ci × 100%): 99.3%
[2]; [29]
  % area (100% − TRS%): 99.5%
  % claim (Cs/Ci × 100%): 98.0%
[2]; [30]
  % area (100% − TRS%): 99.5%
  % claim (Cs/Ci × 100%): 98.8%
[2]; [31]
  % area (100% − TRS%): 99.4%
  % claim (Cs/Ci × 100%): 98.0%
[2]; [32]
  % area (100% − TRS%): 99.4%
  % claim (Cs/Ci × 100%): 99.7%
[2]; [33]
  % area (100% − TRS%): 99.4%
  % claim (Cs/Ci × 100%): 98.2%
[2]; [34]
  % area (100% − TRS%): 99.4%
  % claim (Cs/Ci × 100%): 99.0%
[2]; [35]
  % area (100% − TRS%): 99.5%
  % claim (Cs/Ci × 100%): 97.9%
[2]; [36]
  % area (100% − TRS%): 99.4%
  % claim (Cs/Ci × 100%): 98.9%
